Measurements published in patent US20250319056A1, “METHODS FOR TREATING CANCER” (THE TRUSTEES OF INDIANA UNIVERSITY, priority 2024, published 2025).
Where two headings read alike, the source gives them in different places.

Experiments:
[1] = AlamarBlue cell viability assay, non-cancerous intestine FHs-74Int cells; details: human
HCT-116 cells = assay: AlamarBlue cell viability assay, HCT-116 colon cancer cells; format: cell-based, human; details: for Average Selectivity Index: CC50 non-cancer cells (FHC, FHs 74Int) compared to EC50 HCT-116; for EC50: AlamarBlue, 48 h with compound, read-out: Human Cell Viability EC50 Colon Cancer (HCT 116)
[2] = AlamarBlue cell viability assay, non-cancerous colon FHC cells; details: human
DLD-1 cells = assay: AlamarBlue cell viability assay, DLD-1 colon cancer cells; format: cell-based; details: Homo sapiens, 48 h with compound, ^BP = curve baseline plateaued between ~10-20%, read-out: Human Cell Viability EC50 Colon Cancer (DLD1)
HT-29 cells = assay: AlamarBlue cell viability assay, HT-29 colon cancer cells; format: cell-based; details: Homo sapiens, 48 h with compound, ^BP = curve baseline plateaued between ~10-20%
[3] = FHs-74Int non-cancerous intestine cells, Human Cell Viability CC50 Intestine (FHs 74Int), non-cancerous intestine cells, AlamarBlue, 48 h
[4] = FHC non-cancerous colon cells, Human Cell Viability CC50 Colon (FHC), non-cancerous colon cells, AlamarBlue, 48 h

SMILES | CC50 at 48 h [1, 3] | Average Selectivity Index (HCT-116 cells) | EC50 (HCT-116 cells; Homo sapiens, HCT-116, 48 h) | CC50 at 48 h [2, 4] | CC50 at 48 h [1] | CC50 at 48 h [2] | EC50 (HCT-116 cells; trihydrate) | Average Selectivity Index (HCT-116 cells; trihydrate) | EC50 (DLD-1 cells) | EC50 (HT-29 cells)
CC(=O)O[C@H]1C(=O)[C@@]2(C)[C@H]([C@H](OC(=O)c3ccccc3)[C@]3(O)C[C@H](OC(=O)[C@H](O)[C@@H](NC(=O)c4ccccc4)c4ccccc4)C(C)=C1C3(C)C)[C@]1(OC(C)=O)CO[C@@H]1C[C@@H]2O [Compound 70, Paclitaxel, reference compound] | > 100 µM | 2222.2 | < 0.045 µM | > 100 µM | – | – | – | – | – | –
COc1cc(NC(C)CCCN)c2ncccc2c1 (centres unmarked) [Compound 71, Primaquine, reference compound] | 56.6 µM | – | – | 77.4 µM | – | – | – | – | – | –
CC[n+]1c(-c2ccccc2)c2cc(N)ccc2c2ccc(N)cc21 [Compound 73, Ethidium bromide, reference compound] | – | – | – | – | > 100 µM | > 100 µM | – | – | – | –
CN(C)c1ccc2nc3ccc(=[N+](C)C)cc-3sc2c1 [Compound 74, Methylene blue trihydrate, reference compound] | 23.4 µM | – | 2.3 to 11 µM | 31.3 µM | – | – | 2.3 µM | 11.9 | – | –
CC(C)n1c(/C=C/C(O)CC(O)CC(=O)O)c(-c2ccc(F)cc2)c2ccccc21 (centres unmarked) [Compound 82, Fluvastatin sodium, reference compound] | > 100 µM | 11.6 | – | > 100 µM | – | – | – | – | – | –
O=C(N/N=C/c1ccc([N+](=O)[O-])o1)c1cccs1 [Compound 120] | 50 µM | 7.4 | 9.1 µM | 84 µM | – | – | – | – | 14 µM | 3.6 µM
O=C(N/N=C/c1ccc([N+](=O)[O-])o1)c1ccc(Cl)s1 [Compound 121] | 49 µM | 6.2 | 8.2 µM | 51 µM | – | – | – | – | 8 µM | 5.7 µM
O=C(N/N=C/c1ccc([N+](=O)[O-])o1)c1ccccc1 [Compound 122] | 71 µM | 6.5 | 13 µM | > 100 µM | – | – | – | – | 18 µM | 4.9 µM
O=C(N/N=C/c1ccc([N+](=O)[O-])o1)c1ccncc1 [Compound 123] | 75 µM | 2.6 | 28 µM | 70 µM | – | – | – | – | – | –
COc1ccc(C(=O)N/N=C/c2ccc([N+](=O)[O-])o2)cc1 [Compound 124] | 47 µM | 16.1 | 4.6 µM | > 100 µM | – | – | – | – | 7.6 µM | 2.7 µM
CN(C)c1ccc(C(=O)N/N=C/c2ccc([N+](=O)[O-])o2)cc1 [Compound 125] | > 100 µM | 11.8 | 8.5 µM | > 100 µM | – | – | – | – | > 100 µM | 0.29 µM
O=C(N/N=C/c1ccc([N+](=O)[O-])o1)c1cccc2ccccc12 [Compound 126] | 52 µM | 5.7 | 9.6 µM | 58 µM | – | – | – | – | 11 µM | 4.4 µM
O=C(N/N=C/c1ccc([N+](=O)[O-])o1)c1ccccc1Oc1ccccc1 [Compound 127] | 55 µM | – | 11 µM | 49 µM | – | – | – | – | 26 µM | –
CCN(CC)S(=O)(=O)c1cccc(C(=O)N/N=C/c2ccc([N+](=O)[O-])o2)c1 [Compound 129] | 8.7 µM | 12.0 | 7.8 µM | > 100 µM | – | – | – | – | 8.9 µM | 4.2 µM
O=C(N/N=C/c1ccc([N+](=O)[O-])o1)c1ccc(NS(=O)(=O)c2cccs2)cc1 [Compound 130] | 69 µM | 9.3 | 9.1 µM | > 100 µM | – | – | – | – | 57 µM | 8.1 µM
O=C(N/N=C/c1ccc([N+](=O)[O-])o1)c1ccc(NS(=O)(=O)c2ccc(Br)cc2)cc1 [Compound 131] | > 100 µM | 18.8 | 5.3 µM | > 100 µM | – | – | – | – | 29 µM | 3.6 µM
CCOc1ccc(S(=O)(=O)Nc2ccc(C(=O)N/N=C/c3ccc([N+](=O)[O-])o3)cc2)cc1 [Compound 132, 4-ethoxy-N-(4-(2-((5-nitrofuran-2-yl)methylene)hydrazine-1-carbonyl)phenyl)benzenesulfonamide] | > 100 µM | 52.0 | 1.8 µM | 89 µM | – | – | – | – | 18 µM | 2.3 µM
O=C1CN(/N=C/c2ccc(O)c3ncccc23)C(=O)N1 [Compound 133] | > 100 µM | 2.6 | 39 µM | > 100 µM | – | – | – | – | – | –
CC1CS(=O)(=O)CCN1/N=C/c1ccc(O)c2ncccc12 (centres unmarked) [Compound 134] | 87 µM | 13 | 7 µM | > 100 µM | – | – | – | – | 6.3 µM | 8.1 µM
O=C(N/N=C/c1ccc(O)c2ncccc12)c1cccs1 [Compound 135] | 86 µM | 27 | 3.2 µM | 85 µM | – | – | – | – | 2.3 µM | 3.6 µM
O=C(N/N=C/c1ccc(O)c2ncccc12)c1ccc(Cl)s1 [Compound 136] | 42 µM | 8.8 | 3.8 µM | 25 µM | – | – | – | – | 3.9 µM | 3.2 µM
O=C(N/N=C/c1ccc(O)c2ncccc12)c1ccncc1 [Compound 138] | 69 µM | 1.8 | 48 µM | > 100 µM | – | – | – | – | – | –
CN(C)c1ccc(C(=O)N/N=C/c2ccc(O)c3ncccc23)cc1 [Compound 140] | 42 µM | 8.8 | 4.4 µM | 35 µM | – | – | – | – | – | 2.4 µM
COc1ccc(C(=O)N/N=C/c2ccco2)cc1 [Compound 158] | > 100 µM | 1.0 | > 100 µM | > 100 µM | – | – | – | – | – | –
O=Cc1ccc(O)c2ncccc12 [Compound 159] | 15 µM | 1.6 | 6.2 µM | 4.4 µM | – | – | – | – | – | –
O=Cc1ccc([N+](=O)[O-])o1 [Compound 160] | 53 µM | 1.9 | 29 µM | 53 µM | – | – | – | – | – | –
COc1ccc(C(=O)NN)cc1 [Compound 161] | > 100 µM | 1.0 | > 100 µM | > 100 µM | – | – | – | – | – | –
CC1CS(=O)(=O)CCN1/N=C/c1ccc([N+](=O)[O-])o1 (centres unmarked) [Nifurtimox (Nfx - 106), Nifurtimox, reference compound] | > 100 µM | 1.0 | > 100 µM | > 100 µM | – | – | – | – | – | –
O=C1CN(/N=C/c2ccc([N+](=O)[O-])o2)C(=O)N1 [Nitrofurantoin (Nft), Nitrofurantoin, reference compound] | > 100 µM | 1.1 | 95 µM | > 100 µM | – | – | – | – | – | –
O=[N+]([O-])c1ccc(O)c2ncccc12 [Nitroxoline, reference compound] | 41 µM | 1.6 | 22 µM | 28 µM | – | – | – | – | – | –
